Results as given in patent publication US20260193644A1, “Compositions and Methods For Modulation of Tumor Suppressors and Oncogenes” (FLAGSHIP PIONEERING INNOVATIONS VII, LLC, priority 2022, published 2026).
Several values for one entry are separate records, joined by “and”; a condition that tells them apart may be missing. Equal values may be shown once.

B1: SEQ ID NO: 34508: ORF peptide; sequence only in Sequence Listing (peptide, listed as Homo sapiens)
chain: LPLYPLHRKWAGSGLLVFAAPAARAQQGPGEMATVPAPGRTGERALPPPHVSARASFLGSTLWM
B2: SEQ ID NO: 26298: peptide hit of Table E; sequence only in Sequence Listing (peptide, listed as Homo sapiens)
chain: VQSGKCESSVLGYSATCLPDMGRWRVSSVESWPFASTGGKLAIATAGTGTQAAPRPFLIRPPDSWALALALM

Experiments:
Assay type in all cases: cell-based
U2OS cells [1] = test: WST-1 proliferation assay on U2OS cells treated with peptide
HCT116 cells = test: WST-1 proliferation assay on HCT116 cells treated with peptide
Experimental: Proliferation: HCT-116 cells were plated in 96 well plate (5,000 cells/well) grown in standard media supplemented with 10% FBS. After 48 hours incubation at 37° C. (5% CO2), the cells are subjected to the WST-1 ([…]) assay. The WST-1 assay (Sigma) is a measure of the metabolic activity (i.e. proliferative rate) of cells. […]

Jurkat cells = test: Caspase-Glo 3/7 apoptosis assay, peptide-treated Jurkat cells; conditions: listed = significant
Experimental: (§1) Cell Culture: Tumor cell lines HCT-116 (Colon Cancer Cell line, ATCC) and U2OS (Osteoscarcoma Cell line, ATCC) cells were grown adherently in ATCC-formulated McCoy's 5a medium supplemented with 10% FBS and 1× penicillin-streptomycin at 37° C. (5% CO2). Jurkat cells (acute T-cell leukemia cell line, ATCC) were grown as suspension cultures in ATCC-formulated RPMI-1640 supplemented with 10% FBS and 1× penicillin-streptomycin at 37° C. (5% CO2). HEP-G2 cells (Liver Cancer Cell line, ATCC) cells were grown adherently in ATCC-formulated Eagle's Minimum Essential Medium (EMEM) supplemented with 10% FBS and 1× penicillin-streptomycin at 37° C. (5% CO2).
(§2) Peptide Treatment: Target protein SEQ ID NO: 37997 was synthesized through Fluorenylmethyloxycarbonyl (Fmoc) protection group chemistry using Solid Phase Peptide Synthesis (SPPS). 5 μM of target peptide and control peptides were added to a 96 well plate containing 10,000 cells (100 μL/well). A white-walled 96-well plate adequate for cell culture and compatible with the luminometer was used. (Corning)
(§3) Apoptosis Assay: Following 24 hrs of peptide treatment, an equal volume reconstituted Caspase-Glo® 3/7 assay reagent mixture (Promega) was added to the cells. The contents of wells were gently mixed using a plate shaker at 300-500 rpm for 30 seconds. The plate was then Incubate at room temperature for 3 hours. The treated plates were then read for luminescence on Promega™ GloMax® Plate Reader. A blank reaction that contained caspase-Glo® 3/7 reagent, vehicle and cell culture medium without cells was used to measure background luminescence. The blank reaction values were subtracted from experimental values. A negative control that contained caspase-Glo® 3/7 reagent and vehicle-treated cells in medium was included to determine the basal caspase activity of the cell culture system. Significant difference in apoptosis was determined using ANOVA analysis by comparing cells treated with SEQ ID NO: 37997 peptide to cells treated with an irrelevant control peptide, or vehicle control treated cells.

HCT-116 cells = test: Caspase-Glo 3/7 apoptosis assay, peptide-treated HCT-116 cells; conditions: listed = significant
Experimental: as §1, §2, §3

U2OS cells [2] = test: Caspase-Glo 3/7 apoptosis assay, peptide-treated U2OS cells; conditions: listed = significant
Experimental: as §1, §2, §3

[3] = Low sera (continued), 0.5 uM, head 3 SD
[4] = Low sera (continued), 0.1 uM, head 2 SD
[5] = Low sera (continued), 0.1 uM, head 4 SD

Molecule | proliferation hit score, High sera (U2OS cells [1]; 5 uM, head 5 SD) [SD] | proliferation hit score, Low sera (U2OS cells [1]; [3]) | proliferation hit score, Low sera (U2OS cells [1]; Low sera, 5 uM, head 2 SD) [SD] | proliferation hit score, High sera (HCT116 cells; 0.5 uM, head 3 SD) [SD] | proliferation hit score, High sera (HCT116 cells; 5 uM, head 3 sd) [SD] | proliferation hit score, Low sera (HCT116 cells; [3]) [SD] | proliferation hit score, Low sera (HCT116 cells; Low sera, 5 uM, head 2 SD) [SD] | proliferation hit score, High sera (U2OS cells [1]; 1 uM, head 5 SD) [SD] | proliferation hit score, High sera (U2OS cells [1]; 10 uM, head 8 SD) [SD] | proliferation hit score, Low sera (U2OS cells [1]; [4]) [SD] | proliferation hit score, Low sera (U2OS cells [1]; [5]) | proliferation hit score, Low sera (U2OS cells [1]; Low sera, 1 uM, head 5 SD) | proliferation hit score, Low sera (U2OS cells [1]; Low sera, 10 uM, head 6 SD) | proliferation hit score, High sera (HCT116 cells; 0.1 uM, head 3 SD) [SD] | proliferation hit score, High sera (HCT116 cells; 1 uM, head 2 SD) [SD] | proliferation hit score, High sera (HCT116 cells; 10 uM, head 4 SD) [SD] | proliferation hit score, Low sera (HCT116 cells; Low sera, 1 uM, head 3 SD) [SD] | proliferation hit score, Low sera (HCT116 cells; Low sera, 10 uM, head 3 SD) [SD] | further results
SEQ ID NO: 28759: peptide hit of Table E; sequence only in Sequence Listing (MKKSCRWVFFLITKSLFKETVA; listed as Homo sapiens) | 1.2 | −1.934 SD | −4.99 | −1.466 | −1.78 | 0.5212 | −3.329 |  |  |  |  |  |  |  |  |  |  |  | 
SEQ ID NO: 29230: peptide hit of Table E; sequence only in Sequence Listing (REQVPGMGGKSWLFFYSLVFCALLPLPRREDPFKLF; listed as Homo sapiens) |  |  |  |  |  |  |  | −5.771 | −5.758 | −2.296 | 2.01 SD | 3.875 SD | 2.682 SD | 2.159 | −0.4364 | 0.2713 | −1.09 | −2.162 | 
SEQ ID NO: 29485: ORF peptide; sequence only in Sequence Listing (MRSPLSASALLLWSSSVARAFSSPSLLMAVPSPTCSRY; listed as Homo sapiens) |  |  |  |  |  |  |  |  |  |  | 2.026 SD and 1.922 SD | 3.795 SD and 2.322 SD | 5.612 SD and 4.323 SD |  |  |  |  |  | peptides inducing significant apoptosis vs vehicle control (Jurkat cells): SEQ ID NO: 29485; peptides inducing significant apoptosis (z-score vs vehicle control) (HCT-116 cells): SEQ ID NO: 29485
SEQ ID NO: 33599: ORF peptide; sequence only in Sequence Listing (MCLGLLFCFMPLSLVVSSEEARFKVAADLCGFATGNSW; listed as Homo sapiens) |  |  |  |  |  |  |  | −2.566 | −14.68 | −0.8886 | 2.01 SD | 4.323 SD | −8.391 SD | 0.5427 | −0.6105 | −4.843 | −0.9914 | −5.29 | 
SEQ ID NO: 33681: peptide hit of Table E; sequence only in Sequence Listing (IMAIFFFFCIIVSSLPTAELGTENACSTCLLNE; listed as Homo sapiens) |  |  |  |  |  |  |  | −0.8283 | −10.57 | −1.01 | 4.988 SD | 9.376 SD | −6.861 SD | 0.9926 | −3.672 | −8.606 | 0.1255 | −2.584 | 
SEQ ID NO: 34047: peptide hit of Table E; sequence only in Sequence Listing (MHINYFFFLKLFLSLQNLILALDLRRESLTRDETQ; listed as Homo sapiens) | −6.825 | 2.331 SD | −5.958 | 0.5338 | 0.008734 | 1.561 | 0.3241 |  |  |  |  |  |  |  |  |  |  |  | 
SEQ ID NO: 34296: ORF peptide; sequence only in Sequence Listing (MFFCRNYGSFWFYVLSKMLSFFICLLIFVHLLLLSFLISDWPPPTGSAEHKYSG; listed as Homo sapiens) |  |  |  |  |  |  |  |  |  |  |  |  |  |  |  |  |  |  | peptides inducing significant apoptosis vs vehicle control (Jurkat cells): SEQ ID NO: 34296
SEQ ID NO: 36828: ORF peptide; sequence only in Sequence Listing (MAIFFFFCIIVSSLPTAELGTENACSTCLLNE; listed as Homo sapiens) |  |  |  |  |  |  |  |  |  |  |  |  |  |  |  |  |  |  | z-score compared to vehicle control (peptides inducing significant apoptosis) (U2OS cells [2]): SEQ ID NO: 36828; peptides inducing significant apoptosis vs vehicle control (Jurkat cells): SEQ ID NO: 36828
SEQ ID NO: 38017: peptide hit of Table E; sequence only in Sequence Listing (GVFVVARDRRRRELRTGAFSLLLGVVALLPLCGKRIQALPRACGCGGPEVLVVPR; listed as Homo sapiens) | −3.812 | 2.343 SD | −2.719 | −0.9491 | −1.457 | −0.1996 | −1.525 |  |  |  |  |  |  |  |  |  |  |  | 
SEQ ID NO: 38073: peptide hit of Table E; sequence only in Sequence Listing (MTVSLFLLLATSQSQDGCCDSGSCPNSRQQEGHGAAPASSCLPIP; listed as Homo sapiens) | −4.132 | 3.652 SD | −1.571 | 0.3814 | −0.2232 | 0.586 | 0.1141 |  |  |  |  |  |  |  |  |  |  |  | 
SEQ ID NO: 38076: ORF peptide; sequence only in Sequence Listing (MHLLLLPVIFLPWVLPQHKHTSATPGFSSEKQFMSETENQTANVKFY; listed as Homo sapiens) | −0.8798 | 3.033 SD | 0.2974 | −0.8521 | −1.476 | 0.1011 | −0.293 |  |  |  |  |  |  |  |  |  |  |  | 
SEQ ID NO: 38081: peptide hit of Table E; sequence only in Sequence Listing (MRRAWRPRLLGAALVAH; listed as Homo sapiens) |  |  |  |  |  |  |  | −15.19 | −3.67 | −3.47 | 2.082 SD | 1.521 SD | −2.322 SD | −0.4952 | −0.4884 | −0.5065 | −3.589 | −2.477 | 
B1 | −0.8798 | 5.043 SD | 1.344 | 0.2038 | −0.02329 | 0.9567 | 1.932 | −1.711 | −12.11 | 1.335 | 3.475 SD | 4.275 SD | −11.74 SD | −5.097 | −2.867 | −5.856 | −1.6 | −3.628 | 
B2 |  | 2.391 SD and 2.95 SD |  |  |  |  |  |  |  |  |  |  |  |  |  |  |  |  | 
